Measured values: ChEMBL document CHEMBL1201862, “PubChem BioAssay data set” (2004)
Activity calls are given as the source filed them.

Experiments:
[1] = Intein inhibitors as potential Tuberculosis drugs, a cytotoxicity screen. [Related pubchem assays (depositor defined):AID2221, AID2223, AID434968, AID435010, AID449749, AID449750, AID489010]; assay type: functional
HEK293 = assay: EBV LMP1 TES2 canonical NF-kB signalling blockers – cell-based, HEK293, luciferase, cherry-pick, dose response (AID 588343); assay type: functional; conditions: Homo sapiens
[2] = viability loss in HEK293T cells – cell-based, cherry-picks, cytotoxicity control for HIV Vif inhibitor project, dose response (AID 652208); assay type: functional
[3] = target: T1, Replicative DNA helicase DnaB (Mycobacterium tuberculosis, UniProt P9WMR3); assay: DnaB intein splicing inhibitors, dose response, biochemical, cell-free fluorescence (AID 449749); assay type: functional
T1 sequence (P9WMR3 whole entry): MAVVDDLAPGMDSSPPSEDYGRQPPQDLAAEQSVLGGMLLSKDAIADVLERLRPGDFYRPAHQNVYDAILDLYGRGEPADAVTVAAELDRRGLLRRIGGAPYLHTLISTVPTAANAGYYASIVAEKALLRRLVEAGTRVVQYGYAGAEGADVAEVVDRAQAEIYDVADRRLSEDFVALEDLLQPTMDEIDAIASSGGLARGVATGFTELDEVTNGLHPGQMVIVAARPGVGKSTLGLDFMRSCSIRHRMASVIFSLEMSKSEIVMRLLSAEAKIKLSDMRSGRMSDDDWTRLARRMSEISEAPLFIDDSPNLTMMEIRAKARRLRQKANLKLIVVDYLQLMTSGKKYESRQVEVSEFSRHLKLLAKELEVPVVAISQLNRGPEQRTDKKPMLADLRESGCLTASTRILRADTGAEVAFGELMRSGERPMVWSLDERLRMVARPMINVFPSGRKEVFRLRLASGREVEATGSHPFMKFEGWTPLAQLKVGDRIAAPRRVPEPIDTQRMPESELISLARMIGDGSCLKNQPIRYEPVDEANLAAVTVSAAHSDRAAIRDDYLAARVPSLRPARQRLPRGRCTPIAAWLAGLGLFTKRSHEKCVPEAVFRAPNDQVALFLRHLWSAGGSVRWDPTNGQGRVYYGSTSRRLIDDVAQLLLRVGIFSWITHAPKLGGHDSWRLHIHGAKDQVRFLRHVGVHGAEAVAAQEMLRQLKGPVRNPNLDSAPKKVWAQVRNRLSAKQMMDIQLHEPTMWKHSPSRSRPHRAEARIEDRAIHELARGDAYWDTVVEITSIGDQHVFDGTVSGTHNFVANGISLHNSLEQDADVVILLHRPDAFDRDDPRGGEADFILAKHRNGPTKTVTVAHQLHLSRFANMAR

Protein RecA = target: T2, Protein RecA (Mycobacterium tuberculosis, UniProt P9WHJ3); assay: Fluorescence Cell-Free Homogeneous Dose Retest to Identify Inhibitors of RecA-Intein Splicing Activity. [Related pubchem assays (depositor defined):AID2097, AID2223, AID489010, AID492950]; assay type: functional
T2 sequence (P9WHJ3 whole entry): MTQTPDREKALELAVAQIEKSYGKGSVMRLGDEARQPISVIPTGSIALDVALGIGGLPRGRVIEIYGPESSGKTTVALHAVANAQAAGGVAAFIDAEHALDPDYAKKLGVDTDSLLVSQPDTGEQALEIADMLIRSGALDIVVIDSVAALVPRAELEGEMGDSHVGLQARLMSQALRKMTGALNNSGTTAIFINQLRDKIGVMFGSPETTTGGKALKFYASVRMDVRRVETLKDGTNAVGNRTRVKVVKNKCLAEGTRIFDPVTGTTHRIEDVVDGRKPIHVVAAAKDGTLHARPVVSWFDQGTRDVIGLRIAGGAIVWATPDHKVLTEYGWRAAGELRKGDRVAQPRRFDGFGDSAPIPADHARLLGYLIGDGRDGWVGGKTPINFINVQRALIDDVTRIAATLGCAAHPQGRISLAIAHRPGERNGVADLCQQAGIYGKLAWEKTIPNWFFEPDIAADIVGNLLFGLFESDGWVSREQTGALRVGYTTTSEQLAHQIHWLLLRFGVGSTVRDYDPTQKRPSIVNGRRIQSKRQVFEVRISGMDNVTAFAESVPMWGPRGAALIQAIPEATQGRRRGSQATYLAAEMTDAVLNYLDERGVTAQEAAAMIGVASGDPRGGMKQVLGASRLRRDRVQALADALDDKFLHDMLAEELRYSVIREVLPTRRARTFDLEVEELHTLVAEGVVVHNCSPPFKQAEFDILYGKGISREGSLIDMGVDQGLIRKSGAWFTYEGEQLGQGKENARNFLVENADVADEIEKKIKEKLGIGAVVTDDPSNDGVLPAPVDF

[4] = target: Beta-2 adrenergic receptor (Homo sapiens, UniProt P07550); assay: ADRB2 activation measured by internalization – cell-based, FAP fluorogen, flow cytometry, cherry pick 1, dose response (AID 588763); assay type: functional
Beta-2 adrenergic receptor, sequence (P07550 whole entry): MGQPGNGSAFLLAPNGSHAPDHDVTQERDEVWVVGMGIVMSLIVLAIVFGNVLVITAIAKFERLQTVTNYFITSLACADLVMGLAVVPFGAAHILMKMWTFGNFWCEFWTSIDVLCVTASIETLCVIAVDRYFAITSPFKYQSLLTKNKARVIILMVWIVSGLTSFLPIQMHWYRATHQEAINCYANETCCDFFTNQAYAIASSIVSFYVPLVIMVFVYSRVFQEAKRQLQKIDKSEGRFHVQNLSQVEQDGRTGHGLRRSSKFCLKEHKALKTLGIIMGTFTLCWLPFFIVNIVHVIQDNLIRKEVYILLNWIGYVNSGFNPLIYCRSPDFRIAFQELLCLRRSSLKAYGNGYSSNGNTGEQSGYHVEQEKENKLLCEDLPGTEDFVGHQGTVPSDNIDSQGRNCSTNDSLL

[5] = Luminescent dose response cell-based high throughput screening assay for inhibitors of the Janus kinase 2 mutant JAK2V617F. [Related pubchem assays: 1446 (Primary screen.), 1521 (Confirmation assay.), 1486 (Counter screen.)]; assay type: functional
[6] = target: T3, Kappa-type opioid receptor (Homo sapiens, UniProt P41145); assay: SAR analysis of small molecule agonists of the kappa opioid receptor via a luminescent beta-arrestin assay - Set 3. [Related pubchem assays (depositor defined):AID1777, AID1785, AID1786, AID1966, AID2133, AID2136, AID2284, AID2500]; assay type: functional
T3 sequence (P41145 whole entry): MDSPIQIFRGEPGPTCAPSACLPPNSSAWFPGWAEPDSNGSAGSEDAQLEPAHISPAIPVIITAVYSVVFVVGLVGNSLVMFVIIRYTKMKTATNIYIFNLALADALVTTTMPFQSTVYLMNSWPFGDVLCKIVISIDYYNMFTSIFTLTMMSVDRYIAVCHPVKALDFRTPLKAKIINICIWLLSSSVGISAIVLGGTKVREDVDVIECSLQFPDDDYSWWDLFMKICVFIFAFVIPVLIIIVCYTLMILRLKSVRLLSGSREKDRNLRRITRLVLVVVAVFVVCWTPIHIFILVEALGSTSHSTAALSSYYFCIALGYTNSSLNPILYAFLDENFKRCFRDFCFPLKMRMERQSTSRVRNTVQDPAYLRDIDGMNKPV

Coagulation factor XII = target: T4, Coagulation factor XII (Homo sapiens, UniProt P00748); assay: Factor XIIa Dose Response Confirmation from Single Well HTS. [Related pubchem assays (depositor defined):AID701]; assay type: functional
T4 sequence (P00748 whole entry): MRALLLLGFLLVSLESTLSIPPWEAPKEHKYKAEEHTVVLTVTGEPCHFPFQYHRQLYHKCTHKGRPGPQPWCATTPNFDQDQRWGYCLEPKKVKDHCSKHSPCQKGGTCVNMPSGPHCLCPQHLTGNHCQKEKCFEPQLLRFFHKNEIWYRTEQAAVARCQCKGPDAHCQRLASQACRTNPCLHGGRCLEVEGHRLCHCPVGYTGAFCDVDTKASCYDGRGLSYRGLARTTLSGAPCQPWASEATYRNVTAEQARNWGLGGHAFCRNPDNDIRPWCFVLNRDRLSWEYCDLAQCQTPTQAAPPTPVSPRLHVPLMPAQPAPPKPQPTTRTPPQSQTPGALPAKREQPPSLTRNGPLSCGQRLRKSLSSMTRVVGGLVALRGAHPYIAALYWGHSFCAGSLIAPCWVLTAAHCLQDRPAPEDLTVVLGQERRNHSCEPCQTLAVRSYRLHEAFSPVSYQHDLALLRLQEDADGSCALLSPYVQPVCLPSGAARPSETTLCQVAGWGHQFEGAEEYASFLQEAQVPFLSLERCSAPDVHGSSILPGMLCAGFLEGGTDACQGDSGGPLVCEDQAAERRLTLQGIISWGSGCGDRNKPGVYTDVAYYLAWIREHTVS

[7] = target: T3, Kappa-type opioid receptor; assay: kappa opioid receptor blockers, image-based, SAR follow-up (AID 2348); assay type: functional
[8] = target: T5, Delta-type opioid receptor (Homo sapiens, UniProt P41143); assay: delta opioid receptor blockers – image-based, SAR follow-up (AID 2357); assay type: functional
T5 sequence (P41143 whole entry): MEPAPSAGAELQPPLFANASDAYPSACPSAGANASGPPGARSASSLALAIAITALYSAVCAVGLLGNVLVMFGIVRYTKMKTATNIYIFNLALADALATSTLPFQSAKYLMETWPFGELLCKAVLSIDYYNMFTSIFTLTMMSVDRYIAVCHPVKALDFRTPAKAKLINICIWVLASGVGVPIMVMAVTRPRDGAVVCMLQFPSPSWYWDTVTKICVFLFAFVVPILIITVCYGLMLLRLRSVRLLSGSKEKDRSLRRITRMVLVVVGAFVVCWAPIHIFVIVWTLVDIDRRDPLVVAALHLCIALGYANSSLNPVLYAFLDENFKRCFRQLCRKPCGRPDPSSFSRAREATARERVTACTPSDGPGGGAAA

Mu-type opioid receptor [9] = target: T6, Mu-type opioid receptor (Homo sapiens, UniProt P35372); assay: mu opioid receptor activators, image-based, SAR follow-up (AID 2352); assay type: functional
T6 sequence (P35372 whole entry): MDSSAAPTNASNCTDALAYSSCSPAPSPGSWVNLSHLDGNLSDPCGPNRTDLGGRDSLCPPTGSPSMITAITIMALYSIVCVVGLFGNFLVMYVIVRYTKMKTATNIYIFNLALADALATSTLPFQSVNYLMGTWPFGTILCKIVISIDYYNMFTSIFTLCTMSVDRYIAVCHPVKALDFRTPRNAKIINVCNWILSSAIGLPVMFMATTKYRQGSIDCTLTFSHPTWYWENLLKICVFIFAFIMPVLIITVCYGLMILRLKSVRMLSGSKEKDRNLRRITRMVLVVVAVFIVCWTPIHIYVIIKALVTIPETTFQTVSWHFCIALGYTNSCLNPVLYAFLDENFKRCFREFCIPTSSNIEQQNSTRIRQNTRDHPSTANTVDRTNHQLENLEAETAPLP

[10] = target: T3, Kappa-type opioid receptor; assay: kappa opioid receptor blockers, cell-based, luminescence, beta-arrestin, SAR follow-up (AID 2285); assay type: functional
[11] = target: T3, Kappa-type opioid receptor; assay: kappa opioid receptor activation potency – imaging, image-based, SAR follow-up (AID 2359); assay type: functional
Mu-type opioid receptor [12] = target: T6, Mu-type opioid receptor; assay: mu opioid receptor blockers – image-based, SAR follow-up (AID 2420); assay type: functional;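 note: compounds added before stimulation of receptor with agonist DAMGO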
[13] = target: T5, Delta-type opioid receptor; assay: DOR agonists, SAR follow-up, image-based (AID 2370); assay type: functional
Bcl-2-related protein A1 = target: T7, Bcl-2-related protein A1 (Mus musculus, UniProt Q07440); assay type: functional;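 note: confirmatory dose–response counterscreen on Bfl-1, used to check hits from a UBC13 polyubiquitin inhibitor campaign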
T7 sequence (Q07440 whole entry): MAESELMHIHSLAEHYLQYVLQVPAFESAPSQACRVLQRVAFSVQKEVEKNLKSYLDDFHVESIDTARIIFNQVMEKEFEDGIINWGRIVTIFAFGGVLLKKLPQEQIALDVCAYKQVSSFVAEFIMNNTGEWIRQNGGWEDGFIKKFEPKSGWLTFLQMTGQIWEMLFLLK

[14] = target: T8, Ubiquitin-conjugating enzyme E2 N (Homo sapiens, UniProt P61088); assay type: functional
T8 sequence (P61088 whole entry): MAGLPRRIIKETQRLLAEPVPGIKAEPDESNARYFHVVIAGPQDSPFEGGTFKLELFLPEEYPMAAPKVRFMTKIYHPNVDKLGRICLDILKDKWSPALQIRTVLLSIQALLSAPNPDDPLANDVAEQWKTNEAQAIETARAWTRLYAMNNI

[15] = target: T8, Ubiquitin-conjugating enzyme E2 N; assay type: functional; remark: listed apart in the source
Cannabinoid receptor 1 [16] = target: T9, Cannabinoid receptor 1 (Homo sapiens, UniProt P21554); assay: SAR analysis of antagonists of the Cannabinoid Receptor 1 using an Image-Based Assay - Set 4. [Related pubchem assays (depositor defined):AID2013, AID2026]; assay type: functional
T9 sequence (P21554 whole entry): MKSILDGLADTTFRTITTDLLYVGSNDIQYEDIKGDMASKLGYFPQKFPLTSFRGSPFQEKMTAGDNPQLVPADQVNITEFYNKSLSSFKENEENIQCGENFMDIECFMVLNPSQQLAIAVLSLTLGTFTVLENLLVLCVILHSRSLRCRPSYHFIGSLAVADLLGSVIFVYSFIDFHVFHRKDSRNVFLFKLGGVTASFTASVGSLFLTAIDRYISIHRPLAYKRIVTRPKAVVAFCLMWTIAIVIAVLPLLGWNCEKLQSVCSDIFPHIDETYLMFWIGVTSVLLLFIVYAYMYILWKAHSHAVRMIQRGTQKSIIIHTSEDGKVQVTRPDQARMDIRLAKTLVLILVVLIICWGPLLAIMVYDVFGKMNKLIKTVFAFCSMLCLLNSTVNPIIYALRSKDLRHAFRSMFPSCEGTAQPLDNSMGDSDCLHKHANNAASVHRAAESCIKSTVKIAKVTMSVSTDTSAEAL

[17] = target: T10, G-protein coupled receptor 35 (Homo sapiens, UniProt Q9HC97); assay: SAR analysis of Antagonists of the GPR35 Receptor using an Image-Based Assay - Set 6. [Related pubchem assays (depositor defined):AID2013, AID2026]; assay type: functional
T10 sequence (Q9HC97 whole entry): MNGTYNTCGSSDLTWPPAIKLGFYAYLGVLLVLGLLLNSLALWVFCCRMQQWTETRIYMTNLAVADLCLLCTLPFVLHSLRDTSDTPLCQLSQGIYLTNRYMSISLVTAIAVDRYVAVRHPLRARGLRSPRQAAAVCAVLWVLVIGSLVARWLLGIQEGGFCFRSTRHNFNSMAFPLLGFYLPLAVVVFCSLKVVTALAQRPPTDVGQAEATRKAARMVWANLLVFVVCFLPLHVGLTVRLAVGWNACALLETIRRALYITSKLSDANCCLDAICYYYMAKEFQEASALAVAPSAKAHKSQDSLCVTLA

[18] = target: T10, G-protein coupled receptor 35; assay: SAR analysis of Agonists of the GPR35 Receptor using an Image-Based Assay - Set 4. [Related pubchem assays (depositor defined):AID2013, AID2026]; assay type: functional
Cannabinoid receptor 1 [19] = target: T9, Cannabinoid receptor 1; assay: SAR analysis of agonists of the Cannabinoid Receptor 1 using an Image-Based Assay - Set 4. [Related pubchem assays (depositor defined):AID2013, AID2026]; assay type: functional
Cannabinoid receptor 2 [20] = target: T11, Cannabinoid receptor 2 (Homo sapiens, UniProt P34972); assay: SAR analysis of antagonists of the Cannabinoid Receptor 2 using an Image-Based Assay - Set 3. [Related pubchem assays (depositor defined):AID2013, AID2026]; assay type: functional
T11 sequence (P34972 whole entry): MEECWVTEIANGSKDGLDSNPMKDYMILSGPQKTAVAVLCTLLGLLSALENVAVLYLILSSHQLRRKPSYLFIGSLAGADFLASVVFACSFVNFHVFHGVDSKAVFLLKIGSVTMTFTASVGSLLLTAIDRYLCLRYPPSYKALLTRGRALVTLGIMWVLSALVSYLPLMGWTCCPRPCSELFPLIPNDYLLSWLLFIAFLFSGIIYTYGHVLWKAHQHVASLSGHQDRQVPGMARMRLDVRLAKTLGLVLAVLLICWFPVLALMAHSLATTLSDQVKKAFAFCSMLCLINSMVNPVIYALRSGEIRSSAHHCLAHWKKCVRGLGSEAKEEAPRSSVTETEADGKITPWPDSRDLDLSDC

[21] = target: G-protein coupled receptor 55 (Homo sapiens, UniProt Q9Y2T6); assay: SAR Analysis of Selective Antagonists of GPR55 using an Image-Based Assay - Set 4. [Related pubchem assays (depositor defined):AID2013, AID2026]; assay type: functional;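 note: antagonism of response to 5 µM lysophosphatidylinositol agonist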
G-protein coupled receptor 55, sequence (Q9Y2T6 whole entry): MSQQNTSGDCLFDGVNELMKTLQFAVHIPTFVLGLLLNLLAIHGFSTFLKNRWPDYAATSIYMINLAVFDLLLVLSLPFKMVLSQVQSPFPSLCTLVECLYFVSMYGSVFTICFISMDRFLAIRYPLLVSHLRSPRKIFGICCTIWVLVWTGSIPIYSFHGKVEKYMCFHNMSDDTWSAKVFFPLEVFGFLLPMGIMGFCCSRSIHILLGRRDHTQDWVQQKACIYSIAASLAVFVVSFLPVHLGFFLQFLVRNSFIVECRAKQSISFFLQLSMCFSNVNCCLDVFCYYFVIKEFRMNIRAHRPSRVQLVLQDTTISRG

Cannabinoid receptor 2 [22] = target: T11, Cannabinoid receptor 2; assay: SAR analysis of agonists of the Cannabinoid Receptor 2 using an Image-Based Assay - Set 3. [Related pubchem assays (depositor defined):AID2013, AID2026]; assay type: functional
[23] = NIH3T3 cell viability loss – ATP luminescence, mouse fibroblasts, counter-screen, dose response (AID 2010); assay type: functional, cell-based;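 note: cells exposed to compound for about 90 hours before reading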
[24] = Trypanosoma cruzi growth suppression in host cells – NIH3T3 host cells, beta-gal luminescence, confirmation (AID 2044); assay type: functional, cell-based;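 note: intracellular parasites grown in NIH/3T3 mouse fibroblasts as host cells; luminescent beta-galactosidase reporter signal from transgenic T. cruzi replicating inside host cells; inhibitors lower the luminescence signal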
[25] = target: T12, Type-1 angiotensin II receptor (Homo sapiens, UniProt P30556); assay: agonist activity at AGTR1 – cell-based, uHTS hits, selectivity assay for APJ receptor agonist project, dose response (AID 488865); assay type: functional;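 note: beta-arrestin recruitment to AT1 measured by enzyme fragment complementation luminescence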
T12 sequence (P30556 whole entry): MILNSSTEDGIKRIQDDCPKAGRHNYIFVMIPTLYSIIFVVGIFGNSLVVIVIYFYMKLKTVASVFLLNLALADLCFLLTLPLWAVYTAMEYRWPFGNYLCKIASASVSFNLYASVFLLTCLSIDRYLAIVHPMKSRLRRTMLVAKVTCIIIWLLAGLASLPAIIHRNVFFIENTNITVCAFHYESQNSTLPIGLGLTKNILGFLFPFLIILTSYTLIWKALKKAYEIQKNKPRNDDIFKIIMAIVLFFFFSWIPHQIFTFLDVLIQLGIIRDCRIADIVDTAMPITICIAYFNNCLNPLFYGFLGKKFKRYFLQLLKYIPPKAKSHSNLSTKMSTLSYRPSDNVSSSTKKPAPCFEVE
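Throughout, for CC50: cells exposed to compound for 72 hours before luminescence readout.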

Clc1ccc(-n2nnnc2Sc2ncnc3sccc23)cc1
CC50 [1]: 9.7 µM (active) | AC50 (HEK293): 10.7 µM (active) | AC50 [2]: 10.8 µM (active) | AC50 [3]: 3.76 µM (active) | EC50 (Protein RecA): 1.03 µM (active) | EC50 [4]: 10.5 µM (inactive) | IC50 [5]: 0.787 µM (active)

CCCCN(Cc1cc2cc(Cl)ccc2[nH]c1=O)C(=O)c1ccccn1
EC50 [6]: 1.87 µM (active)

N#Cc1ccc(NC(=O)COC(=O)CNC(=O)C2CCCCC2)cc1
IC50 (Coagulation factor XII): > 50 µM (inactive)

Oc1ccc(C=NNc2ccnc3cc(Cl)ccc23)cc1O
IC50 [7]: 24.8 µM (inactive) | IC50 [8]: 18.9 µM (inactive) | EC50 (Mu-type opioid receptor [9]): > 32 µM (inactive) | IC50 [10]: > 10 µM (inactive) | EC50 [11]: > 32 µM (inactive) | IC50 (Mu-type opioid receptor [12]): > 32 µM (inactive) | EC50 [13]: > 32 µM (inactive)

COc1ccc(OC)c(/C=C/C(=O)OCC(=O)c2c(N)n(C)c(=O)n(C)c2=O)c1
IC50 (Bcl-2-related protein A1): > 20 µM (inactive) | IC50 [14]: 14 µM (active) | IC50 [15]: > 20 µM (inactive)

Cc1nnc(-c2cccc3ccccc23)c2cn(-c3cccc(Br)c3)nc12
IC50 (Cannabinoid receptor 1 [16]): 0.661 µM (active) | IC50 [17]: 28.2 µM (inactive) | EC50 [18]: > 32 µM (inactive) | EC50 (Cannabinoid receptor 1 [19]): > 32 µM (inactive) | IC50 (Cannabinoid receptor 2 [20]): 3.87 µM (active) | IC50 [21]: 5.27 µM (active) | EC50 (Cannabinoid receptor 2 [22]): > 32 µM (inactive)

Clc1cccc(CN2CCc3c([nH]c4ccccc34)C2)c1
EC50 [23]: > 60 µM (not active) | EC50 [24]: 3.73 µM (active) | EC50 [25]: > 100 µM (inactive)
